Source: patent publication US20210236412A1, “COSMETIC COMPOSITION OF NON-AQUEOUS THIXOTROPIC NAIL VARNISH CONTAINING A NAIL-HARDENING AGENT, USE AND IMPLEMENTATION METHOD” (FIABILA, priority 2018, published 2021)

Key:
[1] = Viscosity, Brookfield viscometer; format: physicochemical; details: concentrations of less than 1% by weight
Method: (§1) Various cosmetic compositions in the form of nail varnish of the organic-solvent-based varnish type were prepared and applied to nails. The tests hereinafter were performed on these varnishes: • Gloss: 100 μm of varnish was applied to a Leneta-type panel. After drying, the gloss was measured at an angle of incidence of 60° using a Minolta 268 glossmeter. • Flexibility: An aluminum plate covered with a varnish of 300 μm wet is subjected to a slow stamping and the depth of the penetration is measured (ISO1520). • Varnish hardness: It was measured using a Persoz pendulum on a glass plate covered with a varnish with a thickness of 100 μm wet, after drying at room temperature, according to the ISO1522 standard. • Adhesion: A “cross hatch test” is carried out on a glass plate. A score of 0 corresponds to an absence of loss of adhesion. A score of 5 corresponds to a total loss of adhesion. • Solids content: Between 0.5 and 1 g of varnish is poured into a dish. […] The stability of this shade, and more specifically the appearance or not of any syneresis, is observed. • Odor: The odor of the varnish is compared to that of a varnish not containing any hardening agent. • Viscosity: The viscosity of the product is measured at 25° C. using a Brookfield viscometer. […]

[2] = format: physicochemical
Method: as §1

nails of the hand = assay: In vivo test of nail hardening on panels of 30 persons; parameters: species or system human; details: 0.05% by weight in the varnish composition, three weeks
Excerpt: The varnish was applied under normal conditions of use (namely one application every three days, after having removed the previous varnish). Comparative composition 5 contained 0.05% of hexane, comparative composition 6 contained 0.05% by weight of citral, comparative composition 9 contained 0.05% by weight of caproic acid and composition 7 according to the present invention contained 0.05% by weight of sorbic acid. […] The respective compositions and also the results of the physical tests and observed by the panelists are collated in table 2 hereinafter.

[3] = Sedimentation stability and color fastness of tinted varnish; format: physicochemical; details: 0.1% by weight in the varnish; one month at 45° C.
Method: Various cosmetic compositions in the form of nail varnish of the organic-solvent-based varnish type were prepared and applied to nails. […] The color of the varnish is then compared to a reference varnish not containing any hardening agent. • Sedimentation stability: A tinted varnish composition containing pearlescent agent and a coloring solution is prepared and is placed in an oven for 1 month at 45° C. A visual observation is made to check whether the pearlescent agent has or has not sedimented out. • Shade stability: A tinted varnish containing a mixture of the following pigments: titanium dioxide, Red 34 and ferric ferrocyanide blue, is placed in an oven at 45° C. for 30 days.
firstly, a pearlescent agent: titanium oxide-coated mica sold under the name Flamenco Gold, 6-48 μm, by BASF,
and, secondly, Pigment Red 34: organic pigment sold by Sun Chemical.
This pigment was ground in order to be able to be incorporated. The grinding procedure included mixing the solvents with the pigment, stirring to deagglomerate the pigment, then incorporating the nitrocellulose. Once the latter had dissolved, the plasticizer was incorporated with stirring, which was continued for 20 minutes. […]
Titanium oxide-coated mica (Flamenco Gold, 6-48 μm, from BASF) 2% by weight The stability of the compositions thus prepared was evaluated by visual observation after storage for one month at 45° C.

Row | SMILES | influence on the viscosity of the varnish composition [1] | influence on the stability of the varnish composition [2] | maximum amount that can be incorporated into the varnish without causing yellowing [2] | subjects who found an overall improvement in the quality and the hardness of their nails (nails of the hand) | discoloration of the shade [3]
1 | C/C=C/C=C/C(=O)O [sorbic acid] | does not have any influence | does not have any influence | less than 1 % by weight | more than 83% | –
2 | O=P(O)(O)O [Phosphoric acid] | – | – | – | – | discolors the Pigment Red 34
